Key:
Type in all cases: in vivo
Echinochloa crus-galli [1] = assay: Test Example 7: herbicidal effect test by soil application in upland field (low dose); details: Echinochloa crus-galli, 7.5 g per 10 ares, sprayed one day after sowing, 14 days after application, read-out: weed inhibition rate
Protocol: (§1) The present test was conducted in duplicate for each chemical concentration group, and the weed inhibition rate (%) was determined 14 days after chemical application using the following formula (Math. 1). [formula]
(§2) Pots with an area of 36 cm^2 were filled with upland soil (alluvial loam), twenty seeds each of weeds of Digitaria ciliaris, and Echinochloa crus-galli were uniformly mixed with the top 1 cm layer of soil and the surface was lightly pressed down. One day after sowing, an emulsifiable concentrate prepared according to Formulation Example 5 using the compound shown below was diluted with water, and the diluted solution was sprayed onto the soil surface at a rate of 100 liters per 10 ares. The amount of the active ingredient to be applied was equivalent to 7.5 g per 10 ares. Fourteen days after chemical application, the herbicidal effect was evaluated according to the same criteria as in Test Example 1.

Digitaria ciliaris [2] = assay: as above; details: Digitaria ciliaris, 7.5 g per 10 ares, sprayed one day after sowing, 14 days after application, read-out: weed inhibition rate
Protocol: as §1, §2

Echinochloa crus-galli [3] = assay: Test Example 4: herbicidal effect test by stem and leaf treatment in upland field; details: Echinochloa crus-galli; 120 g per 10 ares; sprayed seven days after sowing, upland soil; 14 days after application; read-out: weed inhibition rate
[4] = system: Echinochloa crus-galli var. formosensis; assay: Test Example 1: herbicidal effect test by soil application in paddy rice; details: Echinochloa crus-galli, soil, 336 h; 120 g active ingredient per 10 ares; applied immediately after sowing, flooded pots; 14 days after application; read-out: weed inhibition rate
Method in brief: (§3)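 Soil-applied test under flooded paddy conditions (~3 cm water) in a glass greenhouse. Seeds were sown shallow (0–1 cm, 30 per species), then compound was dripped in as diluted emulsifiable concentrate at 120 g a.i./10 a.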

Scirpus juncoides = assay: as above; details: Schoenoplectiella juncoides, soil, 336 h; 120 g active ingredient per 10 ares; applied immediately after sowing, flooded pots; 14 days after application; read-out: weed inhibition rate
Method in brief: as §3

[5] = system: Echinochloa crus-galli var. formosensis; assay: Test Example 5: herbicidal effect test by soil application in paddy rice (low dose); details: Echinochloa crus-galli, soil, 336 h; 7.5 g per 10 ares; applied immediately after sowing, flooded pots; 14 days after application; read-out: weed inhibition rate
Method in brief: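 Paddy soil in Wagner pots was fertilized (N:P:K 16:16:16), puddled, sown with 30 seeds per weed species at 0–1 cm, then flooded to ~3 cm in a glass greenhouse. Emulsifiable concentrate diluted in water was dropper-applied into floodwater immediately, at 7.5 g active ingredient per 10 ares; duplicates, scored at 14 days.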

Echinochloa crus-galli [6] = assay: Test Example 3: herbicidal effect test by soil application in upland field; details: Echinochloa crus-galli, 120 g per 10 ares, sprayed one day after sowing, 14 days after application, read-out: weed inhibition rate
Method in brief: (§4)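 Pre-emergence test: seeds mixed into top 1 cm of alluvial loam upland soil in pots; emulsifiable concentrate diluted in water sprayed on soil one day after sowing at 100 L/10 a, 120 g a.i./10 a. Weed inhibition rate (%) scored at 14 days, in duplicate.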

Digitaria ciliaris [7] = assay: as above; details: Digitaria ciliaris, 120 g per 10 ares, sprayed one day after sowing, 14 days after application, read-out: weed inhibition rate
Method in brief: as §4

[8] = system: Echinochloa crus-galli var. formosensis; assay: Test Example 6: herbicidal effect test by application during growth period of paddy rice (low dose); details: Echinochloa crus-galli; 7.5 g per 10 ares; applied seven days after sowing, flooded pots; 14 days after application; read-out: weed inhibition rate
Method in brief: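 Low-dose water application, 7.5 g a.i. per 10 ares, given by dropper into flooded pots (about 3 cm depth) 7 days after sowing of 30 weed seeds each at 0–1 cm. Evaluation of inhibition (%) took place 14 days later, duplicate per rate.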

Echinochloa crus-galli [9] = assay: Test Example 8: herbicidal effect test by stem and leaf treatment in upland field (low dose); details: Echinochloa crus-galli; 7.5 g per 10 ares; sprayed seven days after sowing, upland soil; 14 days after application; read-out: weed inhibition rate
Protocol: as §1
as §2, with “Seven days” for “One day”

Digitaria ciliaris [10] = assay: as above; details: Digitaria ciliaris; 7.5 g per 10 ares; sprayed seven days after sowing, upland soil; 14 days after application; read-out: weed inhibition rate
Protocol: as §1
as §2, with “Seven days” for “One day”

[11] = system: Echinochloa crus-galli var. formosensis; assay: Test Example 2: herbicidal effect test by application during growth period of paddy rice; details: Echinochloa crus-galli; 120 g per 10 ares; applied seven days after sowing, flooded pots; 14 days after application; read-out: weed inhibition rate
Method in brief: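 Paddy soil in Wagner pots was puddled with N:P:K 16:16:16 fertilizer, sown with 30 weed seeds per species at 0–1 cm and flooded to about 3 cm. Seven days after sowing, a water-diluted emulsifiable concentrate was dropped onto the water at 120 g active ingredient per 10 ares. Weed inhibition (%) was scored at 14 days, in duplicate.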

Digitaria ciliaris [12] = assay: Test Example 4: herbicidal effect test by stem and leaf treatment in upland field; details: Digitaria ciliaris; 120 g per 10 ares; sprayed seven days after sowing, upland soil; 14 days after application; read-out: weed inhibition rate

CC(C)[C@]12C[C@@H](OCc3ccc(F)cc3F)[C@](C)(CC1=O)O2 [2-16, (1R,4S,5R)-5-((2,4-difluorobenzyl)oxy)-1-isopropyl-4-methyl-7-oxabicyclo[2.2.1]heptan-2-one]
≥ 80%: inhibition at 75 g/ha (Echinochloa crus-galli [1]) | inhibition at 75 g/ha (Digitaria ciliaris [2]) | inhibition at 1200 g/ha (Echinochloa crus-galli [3]) | pest or weed control at 1200 g/ha [4] | pest or weed control at 1200 g/ha (Scirpus juncoides) | inhibition at 75 g/ha [5] | inhibition at 1200 g/ha (Echinochloa crus-galli [6]) | inhibition at 1200 g/ha (Digitaria ciliaris [7]) | inhibition at 75 g/ha [8] | inhibition at 75 g/ha (Echinochloa crus-galli [9]) | inhibition at 75 g/ha (Digitaria ciliaris [10]) | inhibition at 1200 g/ha [11] | inhibition at 1200 g/ha (Digitaria ciliaris [12])

Cc1ccccc1COC1CC2(C(C)C)OC1(C)CC2Br (stereo not drawn) [1-1343, 5-bromo-1-methyl-2-[(2-methylphenyl)methoxy]-4-isopropyl-7-oxabicyclo[2.2.1]heptane]
≥ 80%: inhibition at 75 g/ha (Echinochloa crus-galli [1]) | inhibition at 75 g/ha (Digitaria ciliaris [2]) | inhibition at 1200 g/ha (Echinochloa crus-galli [3]) | pest or weed control at 1200 g/ha [4] | inhibition at 75 g/ha [5] | inhibition at 1200 g/ha (Echinochloa crus-galli [6]) | inhibition at 1200 g/ha (Digitaria ciliaris [7]) | inhibition at 75 g/ha [8] | inhibition at 75 g/ha (Echinochloa crus-galli [9]) | inhibition at 75 g/ha (Digitaria ciliaris [10]) | inhibition at 1200 g/ha [11] | inhibition at 1200 g/ha (Digitaria ciliaris [12])

CC(C)C12CC(OCc3c(F)cccc3Cl)C(C)(CC1Br)O2 (stereo not drawn) [1-1381, 5-bromo-2-[(2-chloro-6-fluorophenyl)methoxy]-1-methyl-4-isopropyl-7-oxabicyclo[2.2.1]heptane]
≥ 80%: inhibition at 75 g/ha (Echinochloa crus-galli [1]) | inhibition at 75 g/ha (Digitaria ciliaris [2]) | inhibition at 1200 g/ha (Echinochloa crus-galli [3]) | pest or weed control at 1200 g/ha [4] | inhibition at 75 g/ha [5] | inhibition at 1200 g/ha (Echinochloa crus-galli [6]) | inhibition at 1200 g/ha (Digitaria ciliaris [7]) | inhibition at 75 g/ha [8] | inhibition at 75 g/ha (Echinochloa crus-galli [9]) | inhibition at 75 g/ha (Digitaria ciliaris [10]) | inhibition at 1200 g/ha [11] | inhibition at 1200 g/ha (Digitaria ciliaris [12])

CCc1ccccc1CO[C@@H]1C[C@]2(C(C)C)O[C@@]1(C)C[C@@H]2Br [1-682, (1S,2R,4R,5S)-5-bromo-2-[(2-ethylphenyl)methoxy]-1-methyl-4-isopropyl-7-oxabicyclo[2.2.1]heptane]
≥ 80%: inhibition at 75 g/ha (Echinochloa crus-galli [1]) | inhibition at 75 g/ha (Digitaria ciliaris [2]) | inhibition at 1200 g/ha (Echinochloa crus-galli [3]) | pest or weed control at 1200 g/ha [4] | inhibition at 75 g/ha [5] | inhibition at 1200 g/ha (Echinochloa crus-galli [6]) | inhibition at 1200 g/ha (Digitaria ciliaris [7]) | inhibition at 75 g/ha [8] | inhibition at 75 g/ha (Echinochloa crus-galli [9]) | inhibition at 75 g/ha (Digitaria ciliaris [10]) | inhibition at 1200 g/ha [11] | inhibition at 1200 g/ha (Digitaria ciliaris [12])

CC(C)C12CC(OCc3c(F)cccc3F)C(C)(CC1Br)O2 (stereo not drawn) [1-1379, 5-bromo-2-[(2,6-difluorophenyl)methoxy]-1-methyl-4-isopropyl-7-oxabicyclo[2.2.1]heptane]
≥ 80%: inhibition at 75 g/ha (Echinochloa crus-galli [1]) | inhibition at 75 g/ha (Digitaria ciliaris [2]) | inhibition at 1200 g/ha (Echinochloa crus-galli [3]) | pest or weed control at 1200 g/ha [4] | inhibition at 75 g/ha [5] | inhibition at 1200 g/ha (Echinochloa crus-galli [6]) | inhibition at 1200 g/ha (Digitaria ciliaris [7]) | inhibition at 75 g/ha [8] | inhibition at 75 g/ha (Echinochloa crus-galli [9]) | inhibition at 75 g/ha (Digitaria ciliaris [10]) | inhibition at 1200 g/ha [11] | inhibition at 1200 g/ha (Digitaria ciliaris [12])

CC(C)C12CC(OCc3c(F)cccc3Br)C(C)(CC1Br)O2 (stereo not drawn) [1-1598, 5-bromo-2-[(2-bromo-6-fluorophenyl)methoxy]-1-methyl-4-isopropyl-7-oxabicyclo[2.2.1]heptane]
≥ 80%: inhibition at 75 g/ha (Echinochloa crus-galli [1]) | inhibition at 75 g/ha (Digitaria ciliaris [2]) | inhibition at 1200 g/ha (Echinochloa crus-galli [3]) | pest or weed control at 1200 g/ha [4] | inhibition at 75 g/ha [5] | inhibition at 1200 g/ha (Echinochloa crus-galli [6]) | inhibition at 1200 g/ha (Digitaria ciliaris [7]) | inhibition at 75 g/ha [8] | inhibition at 75 g/ha (Echinochloa crus-galli [9]) | inhibition at 75 g/ha (Digitaria ciliaris [10]) | inhibition at 1200 g/ha [11]
